From PMC5097879 (European journal of medicinal chemistry, 2016)
Where a name gives a salt, the structure may show the parent alone. Read-outs that look alike come from different tables or passages of the source.

How the values were obtained:
[1] = molecular target: human α4β2-nAChRs (mixture of HS and LS) (Homo sapiens, UniProt P17787+P43681); settings: SH-EP1-hα4β2 cells; ref [8], [9]; cited from earlier work
HS α4β2-nAChR [2] = molecular target: T1, HS α4β2-nAChR (Homo sapiens, UniProt P17787+P43681); settings: relative to carbamylcholine; ref [8], [9]; cited from earlier work
LS α4β2-nAChR = LS α4β2-nAChR (Homo sapiens, UniProt P17787+P43681); settings: relative to carbamylcholine; ref [8], [9]; cited from earlier work
[3] = ref [12]; cited from earlier work
α7 subtype = settings: read-out: Ki α7 subtype; ref [15], [16]; cited from earlier work
[4] = test system: high sensitivity (HS) α4β2-nAChR; settings: oocytes expressing human nAChRs; ref [15], [16]; cited from earlier work
mice [5] = assay: Mouse forced swim test; type: in vivo; settings: BALB/cJ mice, 6-min test, P < 0.05
HS α4β2-nAChR [6] = molecular target: T1, HS α4β2-nAChR; assay: 86Rb+ ion efflux assay, efficacy at HS α4β2; type: cell-based; settings: relative to full agonist carbamylcholine; ± SEM
mice [7] = assay: SmartCube behavioral platform; type: in vivo, mouse; settings: 15 min preinjection; for SmartCube behavioral signature, extent of effect: 5 and 10 mg/kg i.p.; for SmartCube behavioral signature, 10 mg/kg compared to 5 mg/kg: i.p.
[8] = molecular target: α4β2* endogenous receptors prepared from rat forebrain (Rattus norvegicus, UniProt P09483+P12390); assay: [3H]epibatidine binding competition, α4β2*; settings: versus the N-H analogue
rat α4β2 nAChR = rat α4β2 nAChR (Rattus norvegicus, UniProt P09483+P12390); type: binding; settings: versus the N-H analogue
β2-nAChRs = assay: [3H]epibatidine binding competition, β2-nAChRs overall; set-up: species or system rat; settings: versus parent compound 8

c1cnc2cc3c(cc2n1)[C@@H]1CNC[C@H]3C1 [Compound 1, varenicline]
Inactivation Efficacy [1]: 83 ± 1.0% | Agonism HS-α4β2 Efficacy (HS α4β2-nAChR [2]): 106 ± 5.9% | Agonism LS-α4β2 Efficacy (LS α4β2-nAChR): 34 ± 3.3%

Clc1ccc(OC[C@H]2CCN2)cn1 [Compound 5]
stability in the presence of HCl or TFA following exposure to water [3]: dimerize to compound 6

c1cncc(N2CCCNCC2)c1 [Compound 7, 1-(pyridin-3-yl)-1,4-diazepane]
Ki (α7 subtype): 0.136 µM | efficacy relative to acetylcholine at HS α4β2-nAChR [4]: 41%

COCC[C@H]1C[C@@H]1c1cncc(N2CCCNCC2)c1 [Compound 21, 1-[5-[(1S,2R)-2-(2-Methoxyethyl)cyclopropyl]pyridin-3-yl]-1,4-diazepane trifluoroacetate]
total immobility time compared to control group (water) (mice [5]; acute PO 1 mg/kg): significantly decreased | total immobility time compared to control group (water) (mice [5]; acute PO 10 mg/kg): significantly decreased | Agonism HS-α4β2 Efficacy (HS α4β2-nAChR [6]): 58–81% | SmartCube behavioral signature, extent of effect (mice [7]): most prominent effects | SmartCube behavioral signature, 10 mg/kg compared to 5 mg/kg (mice [7]): fairly similar behavioral signature

COCC[C@H]1C[C@@H]1c1cncc(N2CCCN(C)CC2)c1 [Compound 22, 1-[5-[(1S,2R)-2-(2-methoxyethyl)cyclopropyl]pyridin-3-yl]-4-methyl-1,4-diazepane trifluoroacetate]
drop in binding affinity at α4β2* caused by N-methyl group [8]: more than 10 fold | drop in binding affinity at α4β2 caused by N-methyl group (rat α4β2 nAChR): more than 10 fold

COCC[C@H]1C[C@@H]1c1cncc(N2C[C@@H]3C[C@H]2CN3)c1 [Compound 23, (1S,4S)-2-[5-[(1S,2R)-2-(2-methoxyethyl)cyclopropyl]pyridin-3-yl]-2,5-diazabicyclo[2.2.1]heptane]
decline in binding affinities at β2-nAChRs (β2-nAChRs): ≥ 6 fold

COCC[C@@H]1C[C@H]1c1cncc(N2CCCNCC2)c1 [Compound 25, 1-[5-[(1R,2S)-2-(2-methoxyethyl)cyclopropyl]pyridin-3-yl]-1,4-diazepane]
Agonism HS-α4β2 Efficacy (HS α4β2-nAChR [6]): 58–81% | SmartCube behavioral signature, extent of effect (mice [7]): most prominent effects | SmartCube behavioral signature, 10 mg/kg compared to 5 mg/kg (mice [7]): marked increase

COCC[C@@H]1C[C@H]1c1cncc(N2C[C@@H]3C[C@H]2CN3)c1 [Compound 26, (1S,4S)-2-[5-[R,2S)-(2-(2-methoxyethyl)cyclopropyl]pyridin-3-yl]-2,5-diazabicyclo[2.2.1]heptane]
decline in binding affinities at β2-nAChRs (β2-nAChRs): ≥ 6 fold

OCCc1cc(-c2cncc(N3CCCNCC3)c2)on1 [Compound 30]
Agonism HS-α4β2 Efficacy (HS α4β2-nAChR [6]): 58–81% | SmartCube behavioral signature, extent of effect (mice [7]): most prominent effects | SmartCube behavioral signature, 10 mg/kg compared to 5 mg/kg (mice [7]): marked increase
